Reference: ChEMBL document CHEMBL6178021, “Optimization of Tambjamines Active against Multiple Stages of Malaria Parasites” (J Med Chem, 2025)
≈ marks a conversion by molar mass, not a printed value.

Key:
[1] = test system: Plasmodium falciparum; assay: Antiplasmodial activity against asexual blood-stage Plasmodium falciparum Tm90-C2B using 2% haematocrit and 0.2% parasitemia assessed as reduction in fluorescence measured after 72 hrs by Malaria SYBR Green I-based Fluorescence (MSF) assay; type: functional, organism-based
[2] = test system: HepG2; assay: Cytotoxicity against human HepG2 cells assessed as cell viability measured after 48 hrs by MTT assay; type: toxicity, cell-based; conditions: hepg2
[3] = Metabolic stability in human liver microsomes assessed as half life measured up to 60 mins by LC/MS analysis; type: ADME, Microsome
[4] = Metabolic stability in mouse liver microsomes assessed as half life measured up to 60 mins by LC/MS analysis; type: ADME, Microsome
[5] = test system: Plasmodium yoelii; assay: Antimalarial activity against erythrocytic Plasmodium yoelii MRA-428 infected in CF1 mouse assessed as reduction in parasitemia at 10 mg/kg, po once daily for 4 days measured on day 5; type: functional; design: scale not given: the % may be the effect or the level left; conditions: time 4 day
[6] = test system: Plasmodium yoelii; assay: Antimalarial activity against erythrocytic Plasmodium yoelii MRA-428 infected in CF1 mouse assessed as reduction in parasitemia at 25 mg/kg, po once daily for 4 days measured on day 5; type: functional; design: scale not given: the % may be the effect or the level left; conditions: time 4 day
[7] = test system: Plasmodium yoelii; assay: Antimalarial activity against erythrocytic Plasmodium yoelii MRA-428 infected in CF1 mouse assessed as reduction in parasitemia at 50 mg/kg, po once daily for 4 days measured on day 5; type: functional; design: scale not given: the % may be the effect or the level left; conditions: time 4 day
[8] = test system: Plasmodium yoelii; assay: Antimalarial activity against erythrocytic Plasmodium yoelii MRA-428 infected in CF1 mouse assessed as cured mouse at 25 mg/kg, po once daily for 4 days measured on day 28 day; type: functional, organism-based; conditions: time 4.0 day
[9] = test system: Plasmodium yoelii; assay: Antimalarial activity against erythrocytic Plasmodium yoelii MRA-428 infected in CF1 mouse assessed as cured mouse at 50 mg/kg, po once daily for 4 days measured on day 28 day; type: functional, organism-based; conditions: time 4.0 day
[10] = Solubility of the compound in potassium phosphate buffer at pH 7.4 by UV-vis spectroscopy; conditions: buffer
[11] = test system: MDR1 (human); assay: Apparent permeability across apical to basolateral side in MDCK transfected with human MDR1 cells incubated for 1 hr by LC-MS analysis; conditions: dog, MDCK-MDR1
[12] = test system: MDR1 (human); assay: Apparent permeability across basolateral to apical side in MDCK transfected with human MDR1 cells incubated for 1 hr by LC-MS analysis; conditions: dog, MDCK-MDR1
[13] = test system: MDR1 (human); assay: Efflux ratio, ratio of apparent permeability across apical to basolateral side over basolateral to apical side in MDCK transfected with human MDR1 cells incubated for 1 hr by LC-MS analysis; conditions: dog
[14] = in vitro; conditions: human
Description: Selectivity index, ratio of IC50 for cytotoxicity against human HepG2 cells to IC50 for antiplasmodial activity against asexual blood-stage Plasmodium falciparum D6

[15] = in vitro; conditions: human, liver microsomes
[16] = in vitro; conditions: mouse, liver microsomes
[17] = test system: Plasmodium falciparum; assay: microbe, parasite or virus in culture; conditions: D6, 72 h
Description: Antiplasmodial activity against asexual blood-stage Plasmodium falciparum D6 using 2% haematocrit and 0.2% parasitemia assessed as reduction in fluorescence measured after 72 hrs by Malaria SYBR Green I-based Fluorescence (MSF) assay

[18] = test system: Plasmodium falciparum; assay: microbe, parasite or virus in culture; conditions: Dd2, 72 h
Description: Antiplasmodial activity against asexual blood-stage Plasmodium falciparum Dd2 using 2% haematocrit and 0.2% parasitemia assessed as reduction in fluorescence measured after 72 hrs by Malaria SYBR Green I-based Fluorescence (MSF) assay

[19] = test system: Plasmodium yoelii; assay: Antimalarial activity against erythrocytic Plasmodium yoelii MRA-428 infected in CF1 mouse assessed as reduction in parasitemia at 80 mg/kg, po once daily for 4 days measured on day 5; type: functional; design: scale not given: the % may be the effect or the level left; conditions: time 4 day
[20] = test system: Plasmodium yoelii; assay: Antimalarial activity against erythrocytic Plasmodium yoelii MRA-428 infected in CF1 mouse assessed as cured mouse at 80 mg/kg, po once daily for 4 days measured on day 28 day; type: functional, organism-based; conditions: time 4.0 day

| Structure (SMILES) | IC50 [1] | IC50 [2] | half-life [3] | half-life [4] | Activity [5] | Activity [6] | Activity [7] | Activity [8] | Activity [9] | solubility [10] | Papp A→B at 1 h [11] | Papp B→A at 1 h [12] | efflux ratio at 1 h [13] | selectivity ratio [14] | microsomal CLint at 1 h [15] | microsomal CLint at 1 h [16] | IC50 [17] | IC50 [18] | Activity [19] | Activity [20] |
| --- | --- | --- | --- | --- | --- | --- | --- | --- | --- | --- | --- | --- | --- | --- | --- | --- | --- | --- | --- | --- |
| CCC1=C(CC)/C(=C/NC23C[C@H]4C[C@@H](C2)C[C@@H](C3)C4)N=C1c1ccc(CC)[nH]1 | 0.984 nM | 1500 nM | > 60 min | 50.3 min | 53% | 100% | 100% | Not active; None Of The Mouse Cured Out Of Four Tested | Not active; None Of The Mouse Cured Out Of Four Tested | 10.3 µM (≈ 3.89 µg/mL) | 31 ×10⁻⁶ cm/s | 22 ×10⁻⁶ cm/s | 0.71 | 1580 | 18.5 µL/min/mg | 27.5 µL/min/mg | 0.95 nM | 1.16 nM |  |  |
| CCC1=C(C)/C(=C/NC2CCCCCC2)N=C1c1ccc(CC)[nH]1 | 7.5 nM | 4230 nM | 39.6 min | > 60 min | 43.8% | 100% | 100% | Not active; None Of The Mouse Cured Out Of Four Tested | Not active; None Of The Mouse Cured Out Of Four Tested | 12.5 µM (≈ 4.07 µg/mL) | 0.036 ×10⁻⁶ cm/s | 0.037 ×10⁻⁶ cm/s |  |  | 35.1 µL/min/mg | 22 µL/min/mg | 8.4 nM | 10.8 nM | 100% | Active; Four Mouse Cured Out Of Four |
| CCC1=C(C)/C(=C/NC2CCCCCCC2)N=C1c1ccc(C)[nH]1 | 4.59 nM | 3510 nM | 45.4 min | > 60 min | 96.5% | 100% | 100% | Not active; None Of The Mouse Cured Out Of Four Tested | Not active; None Of The Mouse Cured Out Of Four Tested | 19.9 µM (≈ 6.48 µg/mL) | 0.063 ×10⁻⁶ cm/s | 0.04 ×10⁻⁶ cm/s |  |  | 30.5 µL/min/mg | 0.47 µL/min/mg | 6.59 nM | 3.43 nM | 100% | Active; Three Mouse Cured Out Of Four |
| CCC1=C(C)/C(=C/NC2CCCCCC2)N=C1c1ccc(C)[nH]1 | 23.4 nM | 6120 nM | 48.9 min | > 60 min | 55.3% | 100% | 100% | Not active; None Of The Mouse Cured Out Of Four Tested | Not active; None Of The Mouse Cured Out Of Four Tested | 25.7 µM (≈ 8 µg/mL) |  |  |  |  | 28.3 µL/min/mg | 8.16 µL/min/mg | 29.5 nM | 18.6 nM | 100% | Active; Three Mouse Cured Out Of Four |
| CCC1=C(CC)/C(=C/NC2CCCCCCC2)N=C1c1ccc(C)[nH]1 | 4.95 nM | 3190 nM | > 60 min | > 60 min | 68.5% | 100% |  | Active; Four Mouse Cured Out Of Four |  | < 3.125 µM | 0.006 ×10⁻⁶ cm/s | 0.066 ×10⁻⁶ cm/s |  |  | 20.6 µL/min/mg | 16.8 µL/min/mg | 10.6 nM | 5.75 nM | 100% | Not active; None Of The Mouse Cured Out Of Four Tested |
| CCC1=C(CC)/C(=C/NC2CCCCC2)N=C1c1ccc(CC)[nH]1 | 7.09 nM | 5170 nM | > 60 min | > 60 min | 98.9% | 100% | 100% | Active; Two Mouse Cured Out Of Four | Not active; None Of The Mouse Cured Out Of Four Tested | 31.3 µM (≈ 10.2 µg/mL) | 0.002 ×10⁻⁶ cm/s | 0.091 ×10⁻⁶ cm/s |  |  | 17 µL/min/mg | 14.8 µL/min/mg | 9.03 nM | 4.34 nM | 100% | Active; Two Mouse Cured Out Of Four |
| CCC1=C(C)/C(=C/NC23C[C@H]4C[C@@H](C2)C[C@@H](C3)C4)N=C1c1ccc(CC)[nH]1 | 0.844 nM | 2970 nM | > 60 min | > 60 min | 100% | 100% | 100% | Not active; None Of The Mouse Cured Out Of Four Tested | Not active; None Of The Mouse Cured Out Of Four Tested | 3.95 µM (≈ 1.44 µg/mL) | 0.026 ×10⁻⁶ cm/s | 0.027 ×10⁻⁶ cm/s | 1 | 3270 |  |  | 0.909 nM | 0.348 nM |  |  |
| CCC1=C(C)/C(=C/NC2CCCCC2)N=C1c1ccc(CC)[nH]1 | 13.3 nM | 6010 nM | 34.3 min | > 60 min | 45.7% | 100% | 100% | Not active; None Of The Mouse Cured Out Of Four Tested | Not active; None Of The Mouse Cured Out Of Four Tested | 23 µM (≈ 7.16 µg/mL) | 0.46 ×10⁻⁶ cm/s | 0.23 ×10⁻⁶ cm/s |  |  | 40.4 µL/min/mg | 13.1 µL/min/mg | 33.8 nM | 14.9 nM | 100% | Active; Four Mouse Cured Out Of Four |
| CCc1ccc(C2=N/C(=C\NC3CCCCCC3)C(C)=C2C)[nH]1 | 1.55 nM |  | > 60 min | > 60 min | 42.8% | 94.1% | 100% |  |  | 93.1 µM (≈ 29 µg/mL) |  | 0.035 ×10⁻⁶ cm/s |  |  | 6.78 µL/min/mg | 4.36 µL/min/mg | 2.1 nM | 1.32 nM | 100% | Not active; None Of The Mouse Cured Out Of Four Tested |
| CCc1ccc(C2=N/C(=C\NC3CCCCC3)C3=C2CCCC3)[nH]1 | 1.41 nM | 1190 nM | > 60 min | > 60 min | 43.1% | 100% | 100% | Not active; None Of The Mouse Cured Out Of Four Tested | Not active; None Of The Mouse Cured Out Of Four Tested | 19.5 µM (≈ 6.31 µg/mL) | 0.007 ×10⁻⁶ cm/s | 0.22 ×10⁻⁶ cm/s |  |  | 6.93 µL/min/mg | 5.71 µL/min/mg | 3.5 nM | 1.4 nM | 100% | Not active; None Of The Mouse Cured Out Of Four Tested |
| CCC1=C(CC)/C(=C/N[C@H]2CC[C@H](C(F)(F)F)CC2)N=C1c1ccc[nH]1 | 169 nM | 24500 nM | 22.5 min | 53.6 min | 95.7% | 100% | 100% | Not active; None Of The Mouse Cured Out Of Four Tested | Not active; None Of The Mouse Cured Out Of Four Tested | 314 µM (≈ 115 µg/mL) | 1.4 ×10⁻⁶ cm/s | 0.6 ×10⁻⁶ cm/s | 0.43 | 125 | 61.6 µL/min/mg | 25.9 µL/min/mg | 196 nM | 111 nM |  |  |
| COC1=C(OC)/C(=C/NC23C[C@H]4C[C@@H](C2)C[C@@H](C3)C4)N=C1c1ccc[nH]1 | 4.46 nM | 4660 nM | 17.6 min | 43.2 min | 63.1% | 100% | 100% | Not active; One Mouse Cured Out Of Four | Not active; None Of The Mouse Cured Out Of Four Tested | 167 µM (≈ 59 µg/mL) | 0.27 ×10⁻⁶ cm/s | 0.025 ×10⁻⁶ cm/s | 0.093 | 789 | 78.7 µL/min/mg | 32.1 µL/min/mg |  | 5.96 nM |  |  |
